# Experiments:
# Hela cells = assay: Western blot, autophagy- and iron metabolism-related proteins, Hela; format: cell-based, human
# Method: Western Blotting (autophagy- and iron metabolism-related proteins): Cells were grown in DMEM supplemented with 10% FBS and 1×PEST (Penicillin and streptomycin antibiotics) at 37° C. in incubator having humidified atmosphere with 5% CO2. The media were removed and cells were washed twice with 1× cold PBS. Cells lysis was performed with RIPA lysis buffer containing (150 mM sodium chloride, 1.0% NP-40, 0.1% SDS, 50 mM Tris pH 8.0, 0.5% sodium deoxycholate supplemented with protease inhibitors cocktail). Cells were kept on icebox during the lysis process. Cold lysis buffer was added to each well directly and then cells were scraped and collected in 1.5 ml Eppendorf tube. Cell lysis was kept on icebox for 20 minutes and then centrifuged at 4° C. for 10 minutes. The supernatant was collected and the pellet was discarded. After, protein quantification, samples were boiled in 5× loading buffer at 95° C. for 5 minutes. After completion of the gel running and transfer process, the membrane was stained with ponceau solution. After that, the membrane was washed with 1×TBST and then blocked in 5% non-fat dry milk for 1 hr at room temperature. The membrane was washed 3 times with 1×TBST and then incubated with indicated primary antibodies at 4° C. overnight. Primary antibodies were removed; the membrane was washed 3 times with 1×TBST and then incubated with secondary antibodies for 2 h at room temperature. Secondary antibodies were diluted in 5% non-fat dry milk in 1× TB ST. After removal of the secondary antibody, the membrane was washed 3 times with 1×TBST. The membrane was incubated in ECL solution and the signal was developed using Gel Doc system from Biorad.
# MDA-MB-468 = assay: MTT cell viability, MDA-MB-468; format: cell-based; conditions: Homo sapiens, breast cancer, 48 h of drug treatment, average of three experiments
# Method: (§1) Cell viability studies: Cell viability was assessed using the MTT assay as described before. In brief, all cancer cell lines were seeded at a density of 4×10^4/well in 96 well flat-bottom plates. After 24 h from seeding, cells were treated with the synthesized compounds and left for an incubation period of 48 h. Upon reaching the indicated time point, the media was removed and replaced with 200 μL fresh media containing 0.5 mg/mL of MTT tetrazolium dye (Sigma-Aldrich). Cells were then incubated with MTT solution for 2 h at 37° C. The resultant formazan crystals were dissolved in 200 μl/well of DMSO and absorbance was measured at 570 nm using a microplate reader (Thermo Scientific).
# SKOV3 = assay: MTT cell viability, SKOV3; format: cell-based; conditions: Homo sapiens, SK-OV-3; 48 h of drug treatment; average of three experiments
# Method: as §1
# MDA-MB-231 = assay: MTT cell viability, MDA-MB-231; format: cell-based; conditions: Homo sapiens, breast cancer, 48 h of drug treatment, average of three experiments
# Method: as §1
# SKBR3 = assay: MTT cell viability, SKBR3; format: cell-based; conditions: Homo sapiens, SK-BR-3; breast cancer; 48 h of drug treatment; average of three experiments
# Method: as §1
# JIMT1 = assay: MTT cell viability, JIMT1; format: cell-based; conditions: Homo sapiens, JIMT-1; breast cancer; 48 h of drug treatment; average of three experiments
# Method: as §1
# MRSA-ATCC33591 = assay: MIC broth microdilution, MRSA ATCC33591; format: cell-based, Staphylococcus aureus; conditions: Staphylococcus aureus; overnight incubation, Mueller-Hinton broth; read-out: MIC MRSA-ATCC33591
# Method: (§2) Antibacterial activity: The compounds were tested for the minimum inhibitory concentrations (MIC), which is the lowest concentration of a chemical required to inhibit visible microbial growth following overnight incubation. MIC values were determined using broth microdilution method according to the Clinical and Laboratory Standards Institute guidelines (CLSI, 2015, M07-A10). Mueller-Hinton broth was used as a culture medium in all the experiments. Exponentially growing bacterial cells were prepared in Mueller-Hinton broth at a concentration of approximately 5×10^5 CFU/mL. Two-fold serial dilutions of the test compound (8 concentrations ranged between 100-0.78 μg/mL) were tested. […] In each experiment, solvent (DMSO) was used as a negative control, un-treated control (composing of bacteria in Mueller-Hinton broth) was used as a growth control, blank (culture media alone) was used as sterility control. The 96-well microplate with the test compounds was incubated overnight at 37° C. Turbidity in wells indicated bacterial growth.
# (§3) The compounds were tested on six MDR Gram-positive bacteria including three clinical isolates of methicillin-resistant Staphylococcus aureus (MRSA-1, MRSA-2 and MRSA-3) and three reference MRSA strains (ATCC33591, ATCC33592 and ATCC700699). They were also tested on three MDR Gram-negative bacteria including New Delhi metallo-beta-lactamase (NDM-1) positive, carbapenem-resistant E. coli (ATCC BAA2469), extended-spectrum beta-lactamase (ESBL) producing, colistin-resistant E. coli (CDC-AR-0346) and carbapenem-resistant Acinetobacter baumannii (ATCC BAA1605), in addition to two non-MDR bacteria from the same species, namely E. coli (ATCC 25922) Acinetobacter baumannii (ATCC 19606).
# E. coli ATCC25922 = assay: MIC broth microdilution, E. coli ATCC25922; format: cell-based, Escherichia coli; conditions: Escherichia coli, ATCC25922; not MDR; overnight incubation
# Method: as §2, §3
# AGS = assay: MTT cell viability, AGS; format: cell-based; conditions: Homo sapiens, stomach cancer, 48 h of drug treatment, average of three experiments
# Method: as §1
# Hep3B cells = assay: Western blot, apoptotic biomarkers, tumor suppressor genes and oncogenes, Hep3B; format: cell-based, human; conditions: for PARP cleavage / Cleavage of caspase7 and caspase-3: 1 to 4 μM, 48 h; for Cleavage of caspase7 and caspase-3: clear at 4 μM; for c-Myc oncogene level: dose-dependent manner
# Method: (§4) Western blotting (apoptotic biomarkers, tumor suppressor genes and oncogenes): Hep3B and HCT-116 cells were treated with 1f and 1h compounds with increasing concentrations from 1 to 4 μM for 48 h. After reaching the time point, proteins were extracted from the collected cells after their lyses, and protein quantification was performed using a Detergent compatible (DC) protein assay kit (Bio-Rad) following the manufacturer's instructions. 12% SDS-polyacrylamide gels were used to separate the proteins, following the proteins were transferred onto nitrocellulose membrane using a semi-dry transfer cell. After transfer, membranes were incubated with primary antibodies and the incubation was left overnight at 4° c. The following antibodies were implicated: anti-β actin (Cell Signalling #4970), anti-caspase3 (Cell Signalling #14220), anti-caspase-7 (Cell Signalling33 #9492), anti-PARP (Cell Signalling #9532), anti-P53 (Cell Signalling #2527), anti-C-myc (Cell Signalling #18583), and anti-BAX (#5023). Finally, membranes were incubated with secondary conjugated with horseradish peroxidase. The indicated proteins were detected by chemiluminescence.
# HCT-116 cells = assay: Western blot, apoptotic biomarkers, tumor suppressor genes and oncogenes, HCT-116; format: cell-based, human; conditions: for PARP cleavage / Cleavage of caspase7 and caspase-3 / Levels of p53 proteins / c-Myc oncogene level: HCT-116; for PARP cleavage / Cleavage of caspase7 and caspase-3: 1 to 4 μM, 48 h; for Cleavage of caspase7 and caspase-3: clear at 4 μM; for Levels of p53 proteins: at higher concentrations; for c-Myc oncogene level: dose-dependent manner; for Levels of BAX: treated cells, parallel to decreased p53
# Method: as §4
Structure (SMILES),Expression and metabolism of autophagy marker LC3B1/II (Hela cells),IC50 (MDA-MB-468) [µM],IC50 (SKOV3) [µM],IC50 (MDA-MB-231) [µM],IC50 (SKBR3) [µM],IC50 (JIMT1) [µM],MIC (MRSA-ATCC33591) [µg/mL],MIC (E. coli ATCC25922) [µg/mL],IC50 (AGS) [µM],PARP cleavage (Hep3B cells),Cleavage of caspase7 and caspase-3 (Hep3B cells),c-Myc oncogene level (Hep3B cells),PARP cleavage (HCT-116 cells),Cleavage of caspase7 and caspase-3 (HCT-116 cells),Levels of p53 proteins (HCT-116 cells),c-Myc oncogene level (HCT-116 cells),Levels of BAX (HCT-116 cells),other results
FC(F)(F)c1ccc(N/N=C2\C=C[C@@]3(CC2)CC[C@@H]2NCCc4c2n3c2ccccc42)cc1 (racemic) [Compound 1e],upregulate,2.5 ± 0.13,3.84 ± 0.21,3.63 ± 0.06,1.96 ± 0.08,3.08 ± 0.14,3.12,6.25,3.31 ± 0.12,,,,,,,,,Expression of Ferritin heavy chain (FTH1) (Hela cells): inhibits; Expression of cell cycle marker CDK6 (Hela cells): inhibits; Expression of cellular iron exporter protein Ferroportin (FPN) (Hela cells): inhibits
FC(F)(F)Oc1ccc(N/N=C2\C=C[C@@]3(CC2)CC[C@@H]2NCCc4c2n3c2ccccc42)cc1 [Compound 1f],,,,,,,6.25,12.5,,PARP cleavage,cleavage,downregulate,PARP cleavage,cleavage,decreased,downregulate,decreased levels,
Cc1ccc2c(c1)c1c3n2[C@@]2(C=C/C(=N\Nc4ccc(C(F)(F)F)cc4)CC2)CC[C@@H]3NCC1 [Compound 1h],,,,,,,1.56,12.5,,PARP cleavage,cleavage,downregulate,PARP cleavage,cleavage,decreased,downregulate,decreased levels,
COc1ccc2c(c1)c1c3n2[C@@]2(C=C/C(=N\Nc4ccc(C(F)(F)F)cc4)CC2)CC[C@@H]3NCC1 [Compound 1k],upregulate,2.49 ± 0.16,4.68 ± 0.22,4.03 ± 0.16,4.1 ± 0.21,3.49 ± 0.06,3.12,6.25,4.66 ± 0.15,,,,,,,,,Expression of DNA damage marker pH2AX (Hela cells): induce
